Measurements published in patent EP0416393A1, “Peptidyl difluorodiol renin inhibitors” (ABBOTT LABORATORIES, priority 1989, dated 1991).

Assays:
[1] = molecular target: T1, human renal renin (Homo sapiens, UniProt P00797); test: Inhibition of human renal renin with human angiotensinogen substrate; angiotensin I formed measured by radioimmunoassay; format: biochemical; conditions: 37 degrees C, pH 6.0; read-out: IC₅₀
T1 construct: human renal renin, free from acid proteolytic activity; from tissue; host or cells: human kidney (concluded from the word 'renal')
T1 sequence (P00797 67-406): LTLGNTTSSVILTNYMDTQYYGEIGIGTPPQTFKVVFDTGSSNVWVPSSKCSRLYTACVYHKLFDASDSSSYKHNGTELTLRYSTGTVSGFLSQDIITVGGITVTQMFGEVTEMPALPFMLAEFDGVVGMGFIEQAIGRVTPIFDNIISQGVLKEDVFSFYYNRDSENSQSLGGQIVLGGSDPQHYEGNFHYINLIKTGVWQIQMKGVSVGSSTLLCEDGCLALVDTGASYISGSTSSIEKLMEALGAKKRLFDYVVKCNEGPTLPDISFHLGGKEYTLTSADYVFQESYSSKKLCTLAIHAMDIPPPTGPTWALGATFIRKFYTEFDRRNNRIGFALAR
Protocol: At the end of the incubation, the amount of angiotensin I formed is measured by radioimmunoassay and the molar concentration required to cause 50% inhibition, expressed as the IC₅₀ is calculated. […]

[2] = tested on: male cynomolgus monkeys (M. fascicularis); test: In vivo intraduodenal activity: blood pressure in salt-depleted, anesthetized monkeys; conditions: 1.0 mg/kg intraduodenal
Protocol: Intraduodenal activity for the resultant compound from Example 105 was determined at 1.0 mg/kg in male cynomolgus monkeys (M. fascicularis) weighing between 3 and 5 kg. The monkeys were fed a low-salt chow and fresh fruit diet and treated twice with furosemide (5 mg/kg, po), 1 week and 1 day before the experiment. Following this regimen renders the monkeys in a salt-depleted state, characterized by normal base-line blood pressures but elevated plasma renin activities. The monkeys were fasted overnight and studied under anesthesia on the day of the experiment (sodium pentobarbitol, 15 mg/kg bolus + 0.10 mg/kg/min maintenance iv infusion). A femoral artery was catherterized for the direct and continuous measurement of blood pressure (Grass Pressure Transducer Model P23dB and Graph Polygraph Model 7). The compound was tested for intraduodenal activity via a catheter placed directly into the proximal segment of the duodenum following a laparotomy. Each monkey received only one dose of compound.

## CC(C)C(O)C(F)(F)C(O)C(CC1CCCCC1)NC(=O)C(Cc1c[nH]cn1)NC(=O)C(=Cc1ccccc1)CC(=O)N1CCOCC1 [Example 87, (E)-2-((4-Morpholinylcarbonyl)methyl)cinnamic acid amide of His-2(S)-amino-1-cyclohexyl-4,4-difluoro-3(R),5(R)-dihydroxy-6-methylheptane]
[1]
  IC50: 5.2 nM

## CC(C)[C@@H](O)C(F)(F)[C@H](O)[C@H](CC1CCCCC1)NC(=O)[C@H](Cc1c[nH]cn1)NC(=O)[C@H](Cc1ccccc1)NC(=O)OC(C)(C)C [Example 77, Boc-Phe-His-amide of 2(S)-Amino-1-cyclohexyl-4,4-difluoro-3(R),5(R)-dihydroxy-6-methylheptane]
[1]
  IC50: 1.2 nM

## CC(C)C(O)C(F)(F)C(O)C(CC1CCCCC1)NC(=O)C(Cc1c[nH]cn1)NC(=O)C(CC(=O)N1CCOCC1)Cc1cccc2ccccc12 [Example 86, 2(R,S)-(4-morpholinylcarbonylmethyl)-3-(1′-naphthyl)-propionic acid amide of His-2(S)-amino-1-cyclohexyl-4,4-difluoro-3(R),5(R)-dihydroxy-6-methylheptane]
[1]
  IC50: 1.2 nM

## CC(C)[C@@H](O)C(F)(F)[C@H](O)[C@H](CC1CCCCC1)NC(=O)[C@H](Cc1c[nH]cn1)NC(=O)[C@@H](CC(=O)N1CCOCC1)Cc1ccccc1 [Example 83, 2(R)-2-Benzyl-3-Morpholinocarbonylpropionic acid amide of His-2(S)-Amino-1-cyclohexyl-4,4-difluoro-3(R),5(R)-dihydroxy-6-methylheptane]
[1]
  IC50: 1.5 nM

## CC(C)[C@@H](O)C(F)(F)[C@H](O)[C@H](CC1CCCCC1)NC(=O)[C@H](Cc1cscn1)NC(=O)[C@@H](CC(=O)N1CCN(C)CC1)Cc1ccccc1 [Example 93, 2(R)-2-Benzyl-3(4-methylpiperazine-1-ylcarbonyl)propionic acid amide of L-(4-thiazolyl)alamine-2(S) amino-1-cyclohexyl-4,4-difluoro-3(R),5(R)-dihydroxy-6-methylheptane]
[1]
  IC50: 1.5 nM

## CC(C)[C@@H](O)C(F)(F)[C@H](O)[C@H](CC1CCCCC1)NC(=O)C(Cc1cnc[nH]1)NC(=O)C(Cc1ccc(O)cc1)N(C)C(=O)CC(C)(C)NC(=O)OCc1ccccc1 (stereo partly drawn) [Example 80, Cbz((β,β-di-Me)-β-Ala)-(Me)Tyr-His amide of 2(S)-Amino-1-cyclohexyl-4,4-difluoro-3(R),5(R)-dihydroxy-6-methylheptane]
[1]
  IC50: 1 nM

## Cbz((β,β-di-Me)-β-Ala)-Phe-His amide of 2(S)-Amino-1-cyclohexyl-4,4-difluoro-3(R),5(R)-dihydroxy-6-methylheptane [Example 79]
[1]
  IC50: 1.1 nM

## CC(O)C(F)(F)C(O)C(CC1CCCCC1)NC(=O)C(Cc1c[nH]cn1)NC(=O)C(Cc1ccccc1)NC(=O)OC(C)(C)C [Example 78, Boc-Phe-His amide of 2(S)-Amino-1-cyclohexyl-4,4-difluoro-3(R),5(R,S)-dihydroxyhexane]
[1]
  IC50: 2.5 nM

## CC(C)CC(NC(=O)C(Cc1ccccc1)NC(=O)OC(C)(C)C)C(=O)NC(CC1CCCCC1)C(=O)C(F)(F)C(=O)C(C)C [Example 98, Boc-Phe-Leu amide of 2(S)-Amino-1-cyclohexyl-4,4-difluoro-3,5-dioxo-6-methylheptane]
[1]
  IC50: 0.69 nM

## CC(C)CC(NC(=O)C(Cc1ccccc1)NC(=O)OC(C)(C)C)C(=O)NC(CC1CCCCC1)C(O)C(F)(F)C(O)C(C)C [Example 61, Boc-Phe-Leu amide of 2(S)-Amino-1-cyclohexyl-4,4-difluoro-3(R),5(S)-dihydroxy-6-methylheptane]
[1]
  IC50: 22 nM

## CC(C)C[C@H](NC(=O)[C@H](Cc1ccccc1)NC(=O)OC(C)(C)C)C(=O)N[C@@H](CC1CCCCC1)[C@@H](O)C(F)(F)[C@H](O)C(C)C [Example 60, Boc-Phe-Leu amide of 2(S)-Amino-1-cyclohexyl-4,4-difluoro-3(R),5(R)dihydroxy-6-methylheptane]
[1]
  IC50: 0.64 nM

## CC(C)[C@@H](O)C(F)(F)[C@H](O)[C@H](CC1CCCCC1)NC(=O)[C@H](Cc1cscn1)NC(=O)[C@@H](CC(=O)N(C)CCn1cccn1)Cc1ccccc1 [Example 105, (2R)-2-Benzyl-3-[(2-pyrazol-1-ylethyl)methylaminocarbonyl]propionic acid amide of L-(4-thiazolyl)alanine-2(S)-amino-1-cyclohexyl-4,4-difluoro-3(R),5(R)-dihydroxy-6-methylheptane]
[1]
  IC50: 0.35 nM
[2]; Monkey A, Time 0 min
  MBP (Mean blood pressure): 85 mm Hg
[2]; Monkey A, Time 5 min
  MBP (Mean blood pressure): 85 mm Hg
[2]; Monkey A, Time 10 min
  MBP (Mean blood pressure): 74 mm Hg
[2]; Monkey A, Time 15 min
  MBP (Mean blood pressure): 69 mm Hg
[2]; Monkey A, Time 20 min
  MBP (Mean blood pressure): 65 mm Hg
[2]; Monkey A, Time 25 min
  MBP (Mean blood pressure): 67 mm Hg
[2]; Monkey A, Time 30 min
  MBP (Mean blood pressure): 70 mm Hg
[2]; Monkey A, Time 35 min
  MBP (Mean blood pressure): 71 mm Hg
[2]; Monkey A, Time 40 min
  MBP (Mean blood pressure): 74 mm Hg
[2]; Monkey A, Time 45 min
  MBP (Mean blood pressure): 74 mm Hg
[2]; Monkey A, Time 50 min
  MBP (Mean blood pressure): 76 mm Hg
[2]; Monkey A, Time 55 min
  MBP (Mean blood pressure): 77 mm Hg
[2]; Monkey A, Time 60 min
  MBP (Mean blood pressure): 79 mm Hg
[2]; Monkey A, Time 65 min
  MBP (Mean blood pressure): 79 mm Hg
[2]; Monkey A, Time 70 min
  MBP (Mean blood pressure): 79 mm Hg
[2]; Monkey A, Time 75 min
  MBP (Mean blood pressure): 80 mm Hg
[2]; Monkey A, Time 80 min
  MBP (Mean blood pressure): 79 mm Hg
[2]; Monkey A, Time 85 min
  MBP (Mean blood pressure): 80 mm Hg
[2]; Monkey A, Time 90 min
  MBP (Mean blood pressure): 80 mm Hg
[2]; Monkey A, Time 95 min
  MBP (Mean blood pressure): 81 mm Hg
[2]; Monkey A, Time 100 min
  MBP (Mean blood pressure): 82 mm Hg
[2]; Monkey A, Time 105 min
  MBP (Mean blood pressure): 83 mm Hg
[2]; Monkey A, Time 109 min
  MBP (Mean blood pressure): 81 mm Hg
[2]; Monkey A, Time 114 min
  MBP (Mean blood pressure): 81 mm Hg
[2]; Monkey A, Time 119 min
  MBP (Mean blood pressure): 81 mm Hg
[2]; Monkey B, Time 0 min
  MBP (Mean blood pressure): 89 mm Hg
[2]; Monkey B, Time 5 min
  MBP (Mean blood pressure): 88 mm Hg
[2]; Monkey B, Time 10 min
  MBP (Mean blood pressure): 76 mm Hg
[2]; Monkey B, Time 15 min
  MBP (Mean blood pressure): 79 mm Hg
[2]; Monkey B, Time 20 min
  MBP (Mean blood pressure): 75 mm Hg
[2]; Monkey B, Time 25 min
  MBP (Mean blood pressure): 74 mm Hg
[2]; Monkey B, Time 30 min
  MBP (Mean blood pressure): 75 mm Hg
[2]; Monkey B, Time 35 min
  MBP (Mean blood pressure): 78 mm Hg
[2]; Monkey B, Time 40 min
  MBP (Mean blood pressure): 83 mm Hg
[2]; Monkey B, Time 44 min
  MBP (Mean blood pressure): 83 mm Hg
[2]; Monkey B, Time 49 min
  MBP (Mean blood pressure): 82 mm Hg
[2]; Monkey B, Time 54 min
  MBP (Mean blood pressure): 83 mm Hg
[2]; Monkey B, Time 59 min
  MBP (Mean blood pressure): 86 mm Hg
[2]; Monkey B, Time 64 min
  MBP (Mean blood pressure): 83 mm Hg
[2]; Monkey B, Time 69 min
  MBP (Mean blood pressure): 86 mm Hg
[2]; Monkey B, Time 74 min
  MBP (Mean blood pressure): 87 mm Hg
[2]; Monkey B, Time 79 min
  MBP (Mean blood pressure): 89 mm Hg
[2]; Monkey B, Time 84 min
  MBP (Mean blood pressure): 87 mm Hg
[2]; Monkey B, Time 89 min
  MBP (Mean blood pressure): 92 mm Hg
[2]; Monkey B, Time 94 min
  MBP (Mean blood pressure): 86 mm Hg
[2]; Monkey B, Time 99 min
  MBP (Mean blood pressure): 90 mm Hg
[2]; Monkey B, Time 104 min
  MBP (Mean blood pressure): 91 mm Hg
[2]; Monkey B, Time 109 min
  MBP (Mean blood pressure): 90 mm Hg
[2]; Monkey B, Time 114 min
  MBP (Mean blood pressure): 92 mm Hg
[2]; Monkey B, Time 119 min
  MBP (Mean blood pressure): 92 mm Hg
